Here are results for 22 compounds from US20260297060A1, “COMPOUNDS FOR THE DEGRADATION OF MUTANT BRAF” (C4 THERAPEUTICS, INC., priority 2023, published 2026).

Some results are limits rather than exact numbers.

This experiment concerns A375-NRAS^Q61K cells. Kind of experiment: CTGlo Cell Viability Assay, A375-NRAS^Q61K (A375.11) cells, 96 hours. It is filed as cell-based, human. Conditions: A375.11 (A375-NRAS^Q61K) cells; for Emax: lowest % viability achieved. In outline: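 A375 cells carrying BRAF V600E and NRAS Q61K were seeded at 250 cells/well with a 10-point half-log dose series (max 10 μM final). After 96 h at 37 °C, viability was read as ATP luminescence (CellTiter-Glo), background-subtracted and normalized to DMSO (100%). GI50 from 4-parameter fit; Emax is the lowest % viability.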

The term GI50 denotes the concentration at which growth is held to half of that of the control. `CN(CCO)S(=O)(=O)Nc1ccc(F)c(Oc2ccc3ncn(C4CC5(CCN(C6CCC(c7ccc(NC8CCC(=O)NC8=O)cc7F)CC6)CC5)C4)c(=O)c3c2)c1C#N` (single isomer, unassigned) [Compound 79, 6-[2-cyano-6-fluoro-3-[[2-hydroxyethyl(methyl)sulfamoyl]amino]phenoxy]-3-[7-[4-[4-[(2,6-dioxo-3-piperidyl)amino]-2-fluoro-phenyl]cyclohexyl]-7-azaspiro[3.5]nonan-2-yl]-4-oxo-quinazoline] gave a GI50 of 1 to 10 µM. In addition, under “Homo sapiens, 96 h”, the Emax is 50 to 90%.

Under “Homo sapiens, 96 h”, `CCN(C)S(=O)(=O)Nc1ccc(F)c(Oc2ccc3ncn([C@H]4COC5(CCC(N6CCN(c7ccc(NC8CCC(=O)NC8=O)cc7F)CC6)CC5)C4)c(=O)c3c2)c1C#N` (stereo partly drawn) [Compound 40, 6-[2-cyano-3-[[ethyl(methyl)sulfamoyl]amino]-6-fluoro-phenoxy]-3-[(3R)-8-[4-[4-[(2,6-dioxo-3-piperidyl)amino]-2-fluoro-phenyl]piperazin-1-yl]-1-oxaspiro[4.5]decan-3-yl]-4-oxo-quinazoline] displayed a GI50 of 1 to 10 µM and an Emax of 50 to 90%.

In the case of `CC(C)S(=O)(=O)Nc1ccc(F)c(Oc2ccc3ncn(C4CC5(CCN(C6CC7(C6)CN(c6cc8c(cc6F)c(N6CCC(=O)NC6=O)nn8C)C7)CC5)C4)c(=O)c3c2)c1C#N` (centres unmarked) [Compound 273, N-[2-cyano-3-[3-[7-[2-[3-(2,4-dioxohexahydropyrimidin-1-yl)-5-fluoro-1-methyl-indazol-6-yl]-2-azaspiro[3.3]heptan-6-yl]-7-azaspiro[3.5]nonan-2-yl]-4-oxo-quinazolin-6-yl]oxy-4-fluoro-phenyl]propane-2-sulfonamide], where the note is “Homo sapiens, 96 h”, the concentration for 50% growth inhibition (GI50) was less than 1 µM and the Emax is less than 50%.

As to `CO[C@@H]1CCN(S(=O)(=O)Nc2ccc(F)c(Oc3ccc4ncn([C@H]5COC6(CCN(C7CC8(C7)CN(c7cc9c(cc7F)c(N7CCC(=O)NC7=O)nn9C)C8)CC6)C5)c(=O)c4c3)c2C#N)C1` [Compound 144, (3R)-N-[2-cyano-3-[3-[(3R)-8-[2-[3-(2,4-dioxohexahydropyrimidin-1-yl)-5-fluoro-1-methyl-indazol-6-yl]-2-azaspiro[3.3]heptan-6-yl]-1-oxa-8-azaspiro[4.5]decan-3-yl]-4-oxo-quinazolin-6-yl]oxy-4-fluoro-phenyl]-3-methoxy-pyrrolidine-1-sulfonamide], under “Homo sapiens, 96 h”, the concentration for 50% growth inhibition (GI50) was less than 1 µM and the Emax is less than 50%.

Take `CCN(C)S(=O)(=O)Nc1ccc(F)c(Oc2ccc3ncn([C@@H]4CCC5(CCN(C6CCC(c7cc8c(cc7F)c(N7CCC(=O)NC7=O)nn8C)CC6)CC5)C4)c(=O)c3c2)c1C#N` (single isomer, unassigned) [Compound 31]: for the setting “Homo sapiens, 96 h”, the concentration for 50% growth inhibition (GI50) is 1 to 10 µM and the Emax is less than 50%.

Under “Homo sapiens, 96 h”, `CCN(C)S(=O)(=O)Nc1ccc(F)c(Oc2ccc3ncn([C@H]4COC5(CCN(C6CCC(c7cc8c(cc7F)c(N7CCC(=O)NC7=O)nn8C)CC6F)CC5)C4)c(=O)c3c2)c1C#N` (single isomer, unassigned) [Compound 28] yielded a 50% growth inhibitory concentration (GI50) of less than 1 µM and an Emax of less than 50%.

For `CCN(C)S(=O)(=O)Nc1ccc(F)c(Nc2ccc3ncn([C@@H]4COC5(CCN(C6CCC(c7ccc(NC8CCC(=O)NC8=O)cc7F)CC6)CC5)C4)c(=O)c3c2F)c1C#N` (single isomer, unassigned) [Compound 90], for the setting “Homo sapiens, 96 h”, the GI50 is less than 1 µM and the Emax fell in the range of 50 to 90%.

Regarding `CO[C@H]1CCN(S(=O)(=O)Nc2ccc(F)c(Oc3ccc4ncn([C@H]5COC6(CCN(C7CCC(c8cc9c(cc8F)c(N8CCC(=O)NC8=O)nn9C)CC7)CC6)C5)c(=O)c4c3)c2C#N)C1` (single isomer, unassigned) [Compound 115], where the note is “Homo sapiens, 96 h”, the concentration for 50% growth inhibition (GI50) is less than 1 µM and the Emax was less than 50%.

For the setting “Homo sapiens, 96 h”, `CCN(C)S(=O)(=O)Nc1ccc(F)c(Oc2ccc3ncn([C@H]4CCC5(CCN(C6CCC(c7ccc(NC8CCC(=O)NC8=O)cc7F)CC6)CC5)C4)c(=O)c3c2)c1C#N` (single isomer, unassigned) [Compound 24] returned a GI50 of less than 1 µM and an Emax of less than 50%.

Consider `CN(CCO)S(=O)(=O)Nc1ccc(F)c(Oc2ccc3ncn([C@H]4COC5(CCN(C6CCC(c7cc8c(cc7F)c(N7CCC(=O)NC7=O)nn8C)CC6)CC5)C4)c(=O)c3c2)c1C#N` (single isomer, unassigned) [Compound 73], for which, where the note is “Homo sapiens, 96 h”, the concentration for 50% growth inhibition (GI50) lay in the range of 1 to 10 µM and the Emax is less than 50%.

Where the note is “Homo sapiens, 96 h”, `CCN(C)S(=O)(=O)Nc1ccc(F)c(Oc2ccc3ncc(C4CC5(CCN(C6CC7(C6)CN(c6cc8c(cc6F)c(N6CCC(=O)NC6=O)nn8C)C7)CC5)C4)nc3c2)c1C#N` (centres unmarked) [Compound 177, 7-[2-cyano-3-[[ethyl(methyl)sulfamoyl]amino]-6-fluoro-phenoxy]-2-[7-[2-[3-(2,4-dioxohexahydropyrimidin-1-yl)-5-fluoro-1-methyl-indazol-6-yl]-2-azaspiro[3.3]heptan-6-yl]-7-azaspiro[3.5]nonan-2-yl]quinoxaline] yielded a GI50 of less than 1 µM and an Emax of 50 to 90%.

Consider `CCN(C)S(=O)(=O)Nc1ccc(F)c(Oc2ccc3ncn([C@H]4COC5(CCC(N6CCC(c7cc8c(cc7F)c(N7CCC(=O)NC7=O)nn8C)C(F)(F)C6)CC5)C4)c(=O)c3c2)c1C#N` (single isomer, unassigned) [Compound 38], for which, under “Homo sapiens, 96 h”, the concentration for 50% growth inhibition (GI50) is less than 1 µM and the Emax was less than 50%.

For the setting “Homo sapiens, 96 h”, `CC(C)S(=O)(=O)Nc1ccc(F)c(Oc2ccc3ncn([C@H]4COC5(CCN(C6CCC(c7cc8c(cc7F)c(N7CCC(=O)NC7=O)nn8C)CC6)CC5)C4)c(=O)c3c2)c1C#N` (single isomer, unassigned) [Compound 87] returned a 50% growth inhibitory concentration (GI50) of less than 1 µM and an Emax of less than 50%.

Consider `CCN(C)S(=O)(=O)Nc1ccc(F)c(Oc2ccc3ncn([C@H]4COC5(CCC(N6CC7(CN(c8cc9c(cc8F)c(N8CCC(=O)NC8=O)nn9C)C7)C6)CC5)C4)c(=O)c3c2)c1C#N` (stereo partly drawn) [Compound 27, 6-[2-cyano-3-[[ethyl(methyl)sulfamoyl]amino]-6-fluoro-phenoxy]-3-[(3R)-8-[6-[3-(2,4-dioxohexahydropyrimidin-1-yl)-5-fluoro-1-methyl-indazol-6-yl]-2,6-diazaspiro[3.3]heptan-2-yl]-1-oxaspiro[4.5]decan-3-yl]-4-oxo-quinazoline], for which, under “Homo sapiens, 96 h”, the concentration for 50% growth inhibition (GI50) was less than 1 µM and the Emax was less than 50%.

For the setting “Homo sapiens, 96 h”, `CCN(C)S(=O)(=O)Nc1ccc(F)c(Oc2ccc3ncn([C@H]4COC5(CCN(C6CCC(c7ccc(NC8CCC(=O)NC8=O)cc7F)CC6)CC5)C4)c(=O)c3c2)c1F` (single isomer, unassigned) [Compound 78] gave a GI50 of less than 1 µM and an Emax of less than 50%.

Under “Homo sapiens, 96 h”, `CCN(C)S(=O)(=O)Nc1ccc(F)c(Oc2ccc3ncn(C4CC5(CCN(C6CCC(c7cc8c(cc7F)c(N7CCC(=O)NC7=O)nn8C)CC6)CC5)C4)c(=O)c3c2)c1F` (single isomer, unassigned) [Compound 178, 3-[7-[4-[3-(2,4-dioxohexahydropyrimidin-1-yl)-5-fluoro-1-methyl-indazol-6-yl]cyclohexyl]-7-azaspiro[3.5]nonan-2-yl]-6-[3-[[ethyl(methyl)sulfamoyl]amino]-2,6-difluoro-phenoxy]-4-oxo-quinazoline] displayed a GI50 of 1 to 10 µM and an Emax of 50 to 90%.

For `CO[C@@H]1CCN(S(=O)(=O)Nc2ccc(F)c(Oc3ccc4ncn([C@H]5COC6(CCN(C7CCC(c8cc9c(cc8F)c(N8CCC(=O)NC8=O)nn9C)CC7)CC6)C5)c(=O)c4c3)c2C#N)C1` (single isomer, unassigned) [Compound 100], under “Homo sapiens, 96 h”, the 50% growth inhibitory concentration (GI50) is less than 1 µM and the Emax is less than 50%.

Consider `CCN(C)S(=O)(=O)Nc1ccc(F)c(Oc2ccc3ncn([C@H]4COC5(CCC(N6CC7(CN(c8ccc(NC9CCC(=O)NC9=O)cc8F)C7)C6)CC5)C4)c(=O)c3c2)c1C#N` (stereo partly drawn) [Compound 30, 6-[2-cyano-3-[[ethyl(methyl)sulfamoyl]amino]-6-fluoro-phenoxy]-3-[(3R)-8-[6-[4-[(2,6-dioxo-3-piperidyl)amino]-2-fluoro-phenyl]-2,6-diazaspiro[3.3]heptan-2-yl]-1-oxaspiro[4.5]decan-3-yl]-4-oxo-quinazoline], for which, under “Homo sapiens, 96 h”, the GI50 was 1 to 10 µM and the Emax is less than 50%.

Where the note is “Homo sapiens, 96 h”, `CCN(C)S(=O)(=O)Nc1ccc(F)c(Oc2ccc3ncn(C4CC5(CCN(C6CCC(c7cc8c(cc7F)c(N7CCC(=O)NC7=O)nn8C)CC6F)CC5)C4)c(=O)c3c2)c1C#N` (single isomer, unassigned) [Compound 83, 6-[2-cyano-3-[[ethyl(methyl)sulfamoyl]amino]-6-fluoro-phenoxy]-3-[7-[4-[3-(2,4-dioxohexahydropyrimidin-1-yl)-5-fluoro-1-methyl-indazol-6-yl]-2-fluoro-cyclohexyl]-7-azaspiro[3.5]nonan-2-yl]-4-oxo-quinazoline] returned a GI50 of less than 1 µM and an Emax of less than 50%.

Where the note is “Homo sapiens, 96 h”, `CO[C@H]1CCN(S(=O)(=O)Nc2ccc(F)c(Oc3ccc4ncn([C@H]5COC6(CCN(C7CC8(C7)CN(c7cc9c(cc7F)c(N7CCC(=O)NC7=O)nn9C)C8)CC6)C5)c(=O)c4c3)c2C#N)C1` [Compound 157, (3S)-N-[2-cyano-3-[3-[(3R)-8-[2-[3-(2,4-dioxohexahydropyrimidin-1-yl)-5-fluoro-1-methyl-indazol-6-yl]-2-azaspiro[3.3]heptan-6-yl]-1-oxa-8-azaspiro[4.5]decan-3-yl]-4-oxo-quinazolin-6-yl]oxy-4-fluoro-phenyl]-3-methoxy-pyrrolidine-1-sulfonamide] came in with a GI50 of less than 1 µM and an Emax of 50 to 90%.

Under “Homo sapiens, 96 h”, `CCN(C)S(=O)(=O)Nc1ccc(F)c(Oc2ccc3ncn([C@@H]4C[C@@H]5CN(C6CCC(c7ccc(NC8CCC(=O)NC8=O)cc7F)CC6)C[C@@H]5C4)c(=O)c3c2)c1C#N` (single isomer, unassigned) [Compound 21] had a GI50 of 1 to 10 µM and an Emax of 50 to 90%.

For the setting “Homo sapiens, 96 h”, `CC(C)S(=O)(=O)Nc1ccc(F)c(Oc2ccc3ncn([C@H]4COC5(CCN(C6CCC(c7ccc(NC8CCC(=O)NC8=O)cc7F)CC6)CC5)C4)c(=O)c3c2)c1C#N` (single isomer, unassigned) [Compound 92] came in with a GI50 of less than 1 µM and an Emax of less than 50%.
